Data from patent US20120010285A1, “AGENT FOR PROMOTING ENERGY CONSUMPTION” (KAO CORPORATION, priority 2009, published 2012).

Columns and labels:
PDK4 mRNA = test: Expression of PDK4 mRNA in cultured mouse liver cell line Hepa1-6 (quantitative PCR); type: cell-based; conditions: Hepa1-6 cells, each of the chlorogenic acids (Production Example 4) 5 mM, 24 hours, control at 100
Procedure: (§1) A cultured mouse liver cell line (Hepa1-6 cell) was cultured in 10% bovine serum-containing Dulbeco's Modified Eagle's Medium (DMEM) at 37° C., 5% CO2. The cells were seeded in a 6-well plate, and when they reached subconfluency, the medium was replaced by a serum free medium (DMEM, -FBS), followed by culturing for further 12 hours. Subsequently, various samples were added (final concentration: chlorogenic acids (Production Example 1) 2.5×10^−4% (w/v) and each of the chlorogenic acids (Production Example 4) 5 mM), and after 24 hours of culturing, total RNA was prepared according to a standard method. After preparing cDNA by reverse transcription reaction, quantitative PCR was performed by ABI PRISM 7000 Sequence Detection System (Applied Biosystems) using Power SYBR Green Master Mix (Applied Biosystems). Also, the expression level of each gene was corrected using the expression level of 36B4 as an internal standard, and represented as a relative expression level by setting the expression level of control at 100.

ACC2 mRNA = test: Expression of ACC2 mRNA in cultured mouse liver cell line Hepa1-6 (quantitative PCR); type: cell-based; conditions: Hepa1-6 cells, each of the chlorogenic acids (Production Example 4) 5 mM, 24 hours, control at 100
Procedure: as §1

Compound	expression of PDK4 mRNA (PDK4 mRNA)	expression of ACC2 mRNA (ACC2 mRNA)
O=C(/C=C/c1ccc(O)c(O)c1)O[C@@H]1[C@H](O)C[C@@](O)(C(=O)O)C[C@H]1OC(=O)/C=C/c1ccc(O)c(O)c1 [3,4-dicaffeoylquinic acid]	significantly inhibited	significantly reduced
O=C(/C=C/c1ccc(O)c(O)c1)O[C@@H]1CC(O)(C(=O)O)C[C@@H](OC(=O)/C=C/c2ccc(O)c(O)c2)C1O (some centres unmarked) [3,5-dicaffeoylquinic acid]		significantly reduced
O=C(/C=C/c1ccc(O)c(O)c1)O[C@@H]1C[C@](O)(C(=O)O)C[C@@H](O)[C@H]1O [3-caffeoylquinic acid]	significantly inhibited	significantly reduced
O=C(/C=C/c1ccc(O)c(O)c1)O[C@H]1[C@H](O)C[C@](O)(C(=O)O)C[C@H]1OC(=O)/C=C/c1ccc(O)c(O)c1 [4,5-dicaffeoylquinic acid]		significantly reduced
O=C(/C=C/c1ccc(O)c(O)c1)O[C@H]1[C@H](O)C[C@](O)(C(=O)O)C[C@H]1O [4-caffeoylquinic acid]	significantly inhibited	significantly reduced
